Reference: patent US6342484B1, “Method and compositions for promotion of wound treatment” (Board of Regents, The University of Texas Systems, priority 1993, dated 2002)

What was measured:
[1] = system: 4mm punch wound in Balb/c mice; experiment: Topical applications on 4 mm punch wounds, visual contraction of wounds (Example 5); type: in vivo, mouse; settings: for Relative efficacy (wound contraction): topical agent on wound, uracil 100 μM, two weeks
Method: Balb/c mice were divided into three dietary groups (F=normal mouse chow; NF=nucleotide free mouse chow; and NFR=nucleotide free mouse chow supplemented with yeast RNA). Each group was fed before initiation of wounds. After 4 weeks of feeding, a 4mm punch wound was created on the dorsal surface of each mouse, using a 4mm biopsy punch. The wounds were coated with four different topical agents: 1) saline; 2) uracil {100 μM concentration); 3) saline+CCM; and 4) Uracil+CCM (CCM=crosslinked collagen mesh). CCM is ‘Collagen Permeable Membrane’ from Accurate Chemical & Scientific Corporation, catalog no. YIC 152299. Four mm size circles were soaked with appropriate nucleotide or saline solution (4mm punch wounds) and used to dress the wounds.
Twelve groups were formed from these combinations (n=3). Mice were continued on their respective diets. Wounds were observed visually and photographed at four different times during the experimental period of two weeks.
A record was made of the progressive contraction of the wounds and area among the various dietary and treatment groups.

[2] = system: wound cylinder of PTFE in Balb/C mice; experiment: Wound hydroxyproline content in PTFE wound cylinder, adenine/uracil/RNA diets (Example 2, FIG. 1); type: in vivo, mouse; settings: for amount of OHP/cm PTFE over both the nucleotide free and the non-supplemented diets: diet at least 30 days before implantation, tenth post-operative day
Source text: Twenty-five Balb/C mice were divided into five test groups (n=5) and housed in groups in the animal care facilities. Each group received one of the following diets ad libertum: F—normal mouse chow, NF—nucleotide free diet, NFR—yeast RNA supplemented diet, NFA—adenine supplemented diet, and NFU—uracil supplemented diet. All groups received these diets for at least 30 days prior to wound cylinder implantation. All animals received water ad libitum.
Polytetrafluorethylene (PTFE, Impra Vascular Graft, 3 mm lumen, […]) wound cylinders (1.5 cm long) were placed subcutaneously in the dorsal midline of each animal under general anesthesia (Methoxyflurane, inhalation). All animals were continued on their test diets. On the tenth post-operative day, all animals were euthanized by cervical dislocation and the would cylinders were removed for analysis.
Wound cylinders were analyzed for hydroxyproline (OHP) content using the method of Woessner. Briefly, approximately 1 cm segments of the wound cylinders were hydrolyzed in 0.5 ml 6 N HCl for 3 hours at 130 C. Samples were cooled and 0.5 ml aliquots were neutralized with the appropriate volume of 1 N NaOH. Each sample was diluted to 5.25 ml with H2O in order to reduce the total NaCl concentration to below 0.4 M. Each sample was then reacted as described by Woessner.

| SMILES | results compared with uracil as topical agent ([1]; 100 μM as topical agent in place of uracil) | amount of OHP/cm PTFE over both the nucleotide free and the non-supplemented diets [2] | Relative efficacy (wound contraction) ([1]; Diet F (normal mouse chow)) | Relative efficacy (wound contraction) ([1]; Diet NF (nucleotide free chow)) | Relative efficacy (wound contraction) ([1]; Diet NFR (yeast RNA supplemented)) | fold increase of the amount of OHP in the wound [2] | significance of OHP increase over the non-supplemented diet [2] | significance of OHP increase over the nucleotide free diet [2] |
| --- | --- | --- | --- | --- | --- | --- | --- | --- |
| OC[C@H]1O[C@@H](n2cnc3c(O)ncnc32)[C@H](O)[C@@H]1O [inosine] | no significant differences |  |  |  |  |  |  |  |
| O=c1cc[nH]c(=O)[nH]1 [uracil] |  | increased | moderate | minimal | moderate |  |  |  |
| Nc1ncnc2nc[nH]c12 [Adenine, adenine] |  | increased |  |  |  | close to two times | statistically significant | significant |
